The conditions of data set [1]: background statement; cited from earlier work.
A short description of data set [2]: Pharmacokinetics following single oral administration. The settings on record: for AUC(0-inf) / peak plasma drug concentration: empty stomach. Type of data set: in vivo, healthy Chinese subjects. Here is the method: Trial design: single-center, randomized, double-blind, placebo-controlled, dose-escalation, single administration. Number of subjects: Planned enrollment: 52 subjects, Final analysis: 51 subjects.
• Specifications: 0.5 mg/tablet, 1 mg/tablet, 2 mg/tablet, prepared according to the method of Example 1; • Dose: 0.5 mg, 1 mg, 2 mg, 4 mg, 8 mg, 12 mg. • Administration method: Single-dose, taken with an appropriate amount of water (240 mL).
Evaluation indicators of pharmacokinetic parameters: Time to peak (Tmax), peak concentration (Cmax), area under the plasma concentration time curve from 0 to t (AUC0-t), area under the plasma concentration time curve from 0 to infinity (AUC0-∞), elimination rate constant (λz), half-life period (t1/2), total clearance/bioavailability (CL/F), apparent volume of distribution/bioavailability (Vd/F).
Pharmacokinetic analysis: Pharmacokinetic parameters were calculated using the non-compartmental analysis (NCA) and Phoenix WinNonlin 7.0 data analysis software. Descriptive statistical analysis was performed on pharmacokinetic parameters, providing the number of subjects, arithmetic mean, standard deviation, minimum, median, maximum, and coefficient of variation (CV). Tmax was expressed as median (minimum - maximum). AUC and Cmax belong to a log-normal distribution. The geometric mean was also provided. The relationship between administered dose and drug plasma exposure was evaluated by plotting scatter plots of log-transformed pharmacokinetic parameters (AUC and Cmax) in relation to log dose. Furthermore, the Power model method was used to further explore the linear analysis of administered dose and drug plasma exposure.
A single dose of the tablets of the compound of formula (I) was administered orally to healthy volunteers on empty stomach. […] When the administered doses were 1 mg, 2 mg, 4 mg, 8 mg, and 12 mg, the peak plasma drug concentrations were 1.19 ng/mL, 2.43 ng/mL, 8.61 ng/mL, 16.4 ng/mL, and 23.5 ng/mL, respectively, and the AUC0-∞ were 14.7 h·ng/mL, 29.8 h·ng/mL, 69.4 h·ng/mL, 135 h·ng/mL, and 220 h·ng/mL, respectively. […] Within the dose range of 1 mg-12 mg, Cmax and AUC0-∞ increased with increasing administered dose, and the increase ratio in AUC0-∞ was basically consistent with the dose increase ratio. The inter-individual variability of plasma drug exposure is around 30%.

The conditions of data set [3]: background statement; cited from earlier work. This is another data set of the same source.
For a further data set, the target named is hERG (Homo sapiens, UniProt Q12809). The settings on record: background statement; cited from earlier work.
Chain of hERG (Q12809 whole entry): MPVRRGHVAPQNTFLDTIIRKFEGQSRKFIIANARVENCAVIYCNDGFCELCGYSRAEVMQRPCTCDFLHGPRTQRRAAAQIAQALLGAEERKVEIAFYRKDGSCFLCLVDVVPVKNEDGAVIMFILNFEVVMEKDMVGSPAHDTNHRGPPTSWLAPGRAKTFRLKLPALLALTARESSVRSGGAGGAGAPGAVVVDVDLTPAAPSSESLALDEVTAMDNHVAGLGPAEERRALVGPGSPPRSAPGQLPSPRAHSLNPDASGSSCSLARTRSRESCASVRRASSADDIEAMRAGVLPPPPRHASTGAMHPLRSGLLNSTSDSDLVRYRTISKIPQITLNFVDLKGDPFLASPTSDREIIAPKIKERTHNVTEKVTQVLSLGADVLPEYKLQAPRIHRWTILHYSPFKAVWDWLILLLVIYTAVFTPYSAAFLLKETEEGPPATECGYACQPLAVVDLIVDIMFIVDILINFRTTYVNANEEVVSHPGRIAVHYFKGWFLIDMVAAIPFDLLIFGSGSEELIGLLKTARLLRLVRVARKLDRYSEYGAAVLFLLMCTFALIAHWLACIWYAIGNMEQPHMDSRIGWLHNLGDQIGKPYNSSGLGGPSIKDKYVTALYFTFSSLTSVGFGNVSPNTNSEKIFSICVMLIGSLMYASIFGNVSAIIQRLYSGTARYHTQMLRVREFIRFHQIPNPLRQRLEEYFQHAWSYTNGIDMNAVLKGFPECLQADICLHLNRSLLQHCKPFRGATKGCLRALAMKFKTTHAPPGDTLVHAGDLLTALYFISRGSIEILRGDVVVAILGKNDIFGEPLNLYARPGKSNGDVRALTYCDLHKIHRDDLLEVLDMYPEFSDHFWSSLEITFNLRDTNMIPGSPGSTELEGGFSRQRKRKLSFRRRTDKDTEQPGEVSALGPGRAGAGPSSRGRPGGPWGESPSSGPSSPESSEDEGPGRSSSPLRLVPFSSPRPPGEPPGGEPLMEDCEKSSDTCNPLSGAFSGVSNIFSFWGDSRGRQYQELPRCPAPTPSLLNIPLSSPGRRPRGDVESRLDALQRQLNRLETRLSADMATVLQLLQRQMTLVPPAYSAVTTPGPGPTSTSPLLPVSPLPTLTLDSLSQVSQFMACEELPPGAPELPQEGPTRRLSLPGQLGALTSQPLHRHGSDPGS
For data set [4] the following is noted: background statement; cited from earlier work. This is another data set of the same source.

Results on one molecule are retold here after patent publication EP4782008A1 (priority 2023, dated 2025).

A word on the AUC(0-inf): it is total exposure, with the tail of the curve extrapolated. Higher therefore signals more exposure. For orientation: half-life means how long it takes for the measured level to halve.

Regarding `COc1cc2c(cc1OC)C(=O)C(CC1(F)CCN(Cc3ccccc3F)CC1)C2` (stereo not shown) [compound of formula (I), 2-(4-fluoro-(1-(2-fluorobenzyl))piperidin-4-yl-methyl)-5,6-dimethoxy-2,3-dihydro-1-indanone], the oral bioavailability result in data set [1] is on record as “high”. Besides, the AUC(0-inf) in data set [2] (human, plasma, single oral dose 1 mg) was 14.7 ng·h/mL; in data set [2] (human, plasma, single oral dose 2 mg) it was 29.8 ng·h/mL; in data set [2] (human, plasma, single oral dose 4 mg) it was 69.4 ng·h/mL; in data set [2] (human, plasma, single oral dose 8 mg), 135 ng·h/mL; in data set [2] (human, plasma, single oral dose 12 mg) it was 220 ng·h/mL. In addition, in data set [2] (human, plasma, single oral dose of tablets on empty stomach, range over dose groups, read-out: mean plasma drug elimination half-life period), the half-life is 852 to 1930 min. In addition, the “inter-individual variability of plasma drug exposure” value in data set [2] (single oral dose) is on record as “around 30%”. The “peak plasma drug concentration” value in data set [2] (single oral dose 1 mg) stood at 1.19 ng/mL; in data set [2] (single oral dose 2 mg) it was 2.43 ng/mL; in data set [2] (single oral dose 4 mg), 8.61 ng/mL; in data set [2] (single oral dose 8 mg), 16.4 ng/mL; in data set [2] (single oral dose 12 mg) it was 23.5 ng/mL. Besides, in data set [3], the genetic toxicity entry is on record as “no”. The hERG toxicity result on hERG was “no”. Moreover, in data set [4], the “drug concentration in brain tissue relative to the plasma drug concentration” value is on record as 4.4 times.
